# Test results reported in ChEMBL document CHEMBL1201862, “PubChem BioAssay data set” (2004).
# Active and inactive are the calls of the source.
# Legend:
# [1] = cells
# [2] = molecular target: T1, Mucolipin-3 (Homo sapiens, UniProt Q8TDD5); test: Dose response cell-based high-throughput screening assay for agonists of the transient receptor potential channel ML3 (TRPML3). [Related pubchem assays: 1526, 1424, 1448 ]; type: functional
# T1 sequence (Q8TDD5 whole entry): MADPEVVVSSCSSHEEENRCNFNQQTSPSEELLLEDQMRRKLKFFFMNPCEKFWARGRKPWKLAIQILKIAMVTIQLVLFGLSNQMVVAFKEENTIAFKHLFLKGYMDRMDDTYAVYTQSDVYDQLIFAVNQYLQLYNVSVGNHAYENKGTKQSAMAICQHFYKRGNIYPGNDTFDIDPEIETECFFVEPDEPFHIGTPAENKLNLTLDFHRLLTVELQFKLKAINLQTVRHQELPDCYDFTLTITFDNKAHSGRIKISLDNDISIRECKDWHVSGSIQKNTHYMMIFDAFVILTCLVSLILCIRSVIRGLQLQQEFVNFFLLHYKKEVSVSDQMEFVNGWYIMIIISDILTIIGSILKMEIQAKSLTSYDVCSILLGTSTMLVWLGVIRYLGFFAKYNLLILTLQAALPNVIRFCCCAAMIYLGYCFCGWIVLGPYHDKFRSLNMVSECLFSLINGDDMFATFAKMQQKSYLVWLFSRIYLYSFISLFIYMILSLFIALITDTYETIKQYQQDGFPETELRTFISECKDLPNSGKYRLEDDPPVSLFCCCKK
# [3] = molecular target: Ion channel NompC (Danio rerio, UniProt Q7T1G6); test: Fluorescence counterscreen assay for TRPML3 agonists: dose response cell-based high-throughput screening assay to identify agonists of the transient receptor potential channel N1 (TRPN1). [Related pubchem assays: 1526, 1424, 1448 ]; type: functional
# [4] = HEK-293T viability loss after treatment – luminescence, T-cell screen hits, cytotoxicity control for TCR NF-kB inhibitor project, dose response (AID 489026); type: functional, cell-based;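 further: cells exposed to compound about 14 hours before the viability readout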
# [5] = viability of uninfected HEp-2 cells – cell-based, HTS, cytotoxicity control for RSV inhibitor project, dose response (AID 2410); type: functional; conditions: human respiratory syncytial virus
# [6] = molecular target: T2, Streptokinase A (Streptococcus pyogenes serotype M1, UniProt P10520); test: viability-normalized secreted streptokinase activity reduction – plasminogen activation absorbance, OD405, dose response (AID 1914); type: functional, Streptococcus pyogenes M1 GAS;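 further: secreted streptokinase activity via plasminogen activation per viability signal from cell pellet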
# T2 sequence (P10520 whole entry): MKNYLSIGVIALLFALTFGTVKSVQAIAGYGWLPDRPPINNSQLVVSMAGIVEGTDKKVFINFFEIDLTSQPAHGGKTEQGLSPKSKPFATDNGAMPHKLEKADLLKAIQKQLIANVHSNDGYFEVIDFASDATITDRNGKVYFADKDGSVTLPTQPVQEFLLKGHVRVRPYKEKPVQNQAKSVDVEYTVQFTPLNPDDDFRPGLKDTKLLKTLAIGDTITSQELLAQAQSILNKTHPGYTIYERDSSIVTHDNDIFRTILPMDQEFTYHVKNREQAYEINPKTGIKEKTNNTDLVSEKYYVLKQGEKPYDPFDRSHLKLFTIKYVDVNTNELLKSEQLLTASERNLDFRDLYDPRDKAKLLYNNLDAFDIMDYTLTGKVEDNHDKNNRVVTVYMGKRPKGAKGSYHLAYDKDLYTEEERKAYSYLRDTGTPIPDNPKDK
# [7] = test system: Streptococcus sp. 'group A'; test: Streptococcus pyogenes SK(-)GAS viability under kanamycin – luminescence, BacTiterGlo, confirmation, counter-screen for streptokinase expression inhibitor project, dose response (AID 1900); type: functional, organism-based
# [8] = test system: Streptococcus; test: GAS UMAA2166 growth inhibition – luminescence, BacTiterGlo, counter-screen for streptokinase expression inhibitor project, dose response (AID 1915); type: functional, organism-based;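 further: potency for reduction of bacterial viability or growth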
# [9] = Luminescence Cell-Based Dose Response HTS to Identify Inhibitors of 5'UTR Stem-Loop Driven Prion Protein mRNA Translation in H4 Neuroglioblastoma Cells. [Related pubchem assays: 1827 (Project Summary), 1813 (Primary HTS)]; type: functional
# [10] = test system: BJ; test: cells; type: functional, cell-based; conditions: Homo sapiens
# [11] = luciferase reporter signal suppression in cells – H4 neuroglioma cells, luminescence, dose response (AID 1990); type: functional, cell-based
# [12] = DRD fibroblast viability loss – cell-based, non-viral oncogenic, luminescence, dose response (AID 1934); type: functional; conditions: Homo sapiens
# [13] = test system: BJ; test: BJ-TERT fibroblast viability loss – cell-based, RAS-independent, luminescence, dose response (AID 1933); type: functional; conditions: Homo sapiens
# [14] = test system: BJ; test: BJ-TERT-LT-ST fibroblast viability loss – cell-based, RAS-independent, luminescence, dose response (AID 1935); type: functional; conditions: Homo sapiens;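 further: BJ fibroblasts immortalized with TERT plus LT and ST oncogenes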
# [15] = molecular target: T3, Alkaline phosphatase, tissue-nonspecific isozyme (Homo sapiens, UniProt P05186); test: potency against alkaline phosphatase TNAP – biochemical, luminescent, dose response, SAR follow-up (AID 1056)
# T3 sequence (P05186 whole entry): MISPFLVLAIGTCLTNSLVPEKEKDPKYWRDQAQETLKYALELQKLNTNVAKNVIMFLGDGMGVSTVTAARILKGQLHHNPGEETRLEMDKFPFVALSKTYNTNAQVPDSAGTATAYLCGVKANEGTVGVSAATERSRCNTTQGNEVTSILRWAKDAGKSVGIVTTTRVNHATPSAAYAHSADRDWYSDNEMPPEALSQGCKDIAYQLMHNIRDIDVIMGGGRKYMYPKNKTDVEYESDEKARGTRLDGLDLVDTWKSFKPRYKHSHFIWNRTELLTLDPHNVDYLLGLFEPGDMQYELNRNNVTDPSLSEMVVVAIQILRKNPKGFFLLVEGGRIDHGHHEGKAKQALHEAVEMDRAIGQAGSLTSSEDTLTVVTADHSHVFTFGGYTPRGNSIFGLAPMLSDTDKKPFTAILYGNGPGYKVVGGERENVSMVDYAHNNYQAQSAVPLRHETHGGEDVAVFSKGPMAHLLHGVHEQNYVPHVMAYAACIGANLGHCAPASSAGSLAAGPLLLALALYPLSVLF
# [16] = molecular target: Glyceraldehyde-3-phosphate dehydrogenase (Homo sapiens, UniProt P04406)
# [17] = molecular target: T4, Short transient receptor potential channel 4 (Mus musculus, UniProt Q9QUQ5); test: block of DAMGO-driven TRPC4 calcium entry – cell-based, HEK293 TRPC4/mu-opioid, Fluo-4 calcium, dose response (AID 434942); type: functional;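 further: potency of inhibitors blocking the TRPC4 calcium response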
# T4 sequence (Q9QUQ5 whole entry): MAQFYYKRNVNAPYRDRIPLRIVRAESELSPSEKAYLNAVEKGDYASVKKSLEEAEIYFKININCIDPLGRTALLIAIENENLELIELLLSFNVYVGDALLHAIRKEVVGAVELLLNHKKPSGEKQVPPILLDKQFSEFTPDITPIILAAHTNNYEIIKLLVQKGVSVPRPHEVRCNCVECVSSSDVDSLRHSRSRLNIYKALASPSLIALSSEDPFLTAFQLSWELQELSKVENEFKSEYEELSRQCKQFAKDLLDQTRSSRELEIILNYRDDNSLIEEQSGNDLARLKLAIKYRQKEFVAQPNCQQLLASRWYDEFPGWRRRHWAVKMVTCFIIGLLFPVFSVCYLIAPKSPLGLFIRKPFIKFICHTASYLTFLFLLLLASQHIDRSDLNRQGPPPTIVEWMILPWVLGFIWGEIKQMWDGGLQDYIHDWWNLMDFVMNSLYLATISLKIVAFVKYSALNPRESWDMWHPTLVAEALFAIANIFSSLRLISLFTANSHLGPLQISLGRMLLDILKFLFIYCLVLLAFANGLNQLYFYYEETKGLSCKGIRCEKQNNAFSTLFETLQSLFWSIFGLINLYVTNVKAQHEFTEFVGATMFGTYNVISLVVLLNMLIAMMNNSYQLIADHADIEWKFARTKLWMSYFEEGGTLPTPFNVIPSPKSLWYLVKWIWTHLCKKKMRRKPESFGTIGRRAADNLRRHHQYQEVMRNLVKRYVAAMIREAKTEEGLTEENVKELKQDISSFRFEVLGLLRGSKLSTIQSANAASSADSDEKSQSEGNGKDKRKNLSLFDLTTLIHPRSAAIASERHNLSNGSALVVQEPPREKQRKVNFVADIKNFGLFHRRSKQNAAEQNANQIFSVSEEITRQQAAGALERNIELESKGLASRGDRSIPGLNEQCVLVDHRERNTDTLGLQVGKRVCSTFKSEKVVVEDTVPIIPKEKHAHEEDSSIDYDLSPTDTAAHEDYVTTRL
# [18] = test system: Escherichia coli; test: microbe, parasite or virus in culture
# [19] = molecular target: Glucose-6-phosphate 1-dehydrogenase (Homo sapiens, UniProt P11413); test: inhibition of Homo sapiens G6PD, dose series – biochemical, fluorescence, selectivity assay for P. falciparum G6PD inhibitor project, dose response (AID 504792); type: functional
# Chain of Glucose-6-phosphate 1-dehydrogenase (P11413 whole entry): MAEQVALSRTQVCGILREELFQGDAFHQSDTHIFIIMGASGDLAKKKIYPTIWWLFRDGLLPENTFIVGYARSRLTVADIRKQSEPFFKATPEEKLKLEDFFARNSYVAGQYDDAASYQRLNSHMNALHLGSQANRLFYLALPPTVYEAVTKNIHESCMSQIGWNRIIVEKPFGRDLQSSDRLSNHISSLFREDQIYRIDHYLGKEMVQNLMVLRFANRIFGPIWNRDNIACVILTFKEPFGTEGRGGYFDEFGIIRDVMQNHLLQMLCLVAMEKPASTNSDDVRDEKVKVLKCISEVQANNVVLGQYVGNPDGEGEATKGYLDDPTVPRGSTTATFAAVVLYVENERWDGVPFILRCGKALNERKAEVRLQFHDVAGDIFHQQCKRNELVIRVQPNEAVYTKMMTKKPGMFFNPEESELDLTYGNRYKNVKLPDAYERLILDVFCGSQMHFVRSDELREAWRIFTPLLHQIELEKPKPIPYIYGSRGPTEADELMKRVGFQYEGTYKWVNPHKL
# Chain of Ion channel NompC (Q7T1G6 whole entry): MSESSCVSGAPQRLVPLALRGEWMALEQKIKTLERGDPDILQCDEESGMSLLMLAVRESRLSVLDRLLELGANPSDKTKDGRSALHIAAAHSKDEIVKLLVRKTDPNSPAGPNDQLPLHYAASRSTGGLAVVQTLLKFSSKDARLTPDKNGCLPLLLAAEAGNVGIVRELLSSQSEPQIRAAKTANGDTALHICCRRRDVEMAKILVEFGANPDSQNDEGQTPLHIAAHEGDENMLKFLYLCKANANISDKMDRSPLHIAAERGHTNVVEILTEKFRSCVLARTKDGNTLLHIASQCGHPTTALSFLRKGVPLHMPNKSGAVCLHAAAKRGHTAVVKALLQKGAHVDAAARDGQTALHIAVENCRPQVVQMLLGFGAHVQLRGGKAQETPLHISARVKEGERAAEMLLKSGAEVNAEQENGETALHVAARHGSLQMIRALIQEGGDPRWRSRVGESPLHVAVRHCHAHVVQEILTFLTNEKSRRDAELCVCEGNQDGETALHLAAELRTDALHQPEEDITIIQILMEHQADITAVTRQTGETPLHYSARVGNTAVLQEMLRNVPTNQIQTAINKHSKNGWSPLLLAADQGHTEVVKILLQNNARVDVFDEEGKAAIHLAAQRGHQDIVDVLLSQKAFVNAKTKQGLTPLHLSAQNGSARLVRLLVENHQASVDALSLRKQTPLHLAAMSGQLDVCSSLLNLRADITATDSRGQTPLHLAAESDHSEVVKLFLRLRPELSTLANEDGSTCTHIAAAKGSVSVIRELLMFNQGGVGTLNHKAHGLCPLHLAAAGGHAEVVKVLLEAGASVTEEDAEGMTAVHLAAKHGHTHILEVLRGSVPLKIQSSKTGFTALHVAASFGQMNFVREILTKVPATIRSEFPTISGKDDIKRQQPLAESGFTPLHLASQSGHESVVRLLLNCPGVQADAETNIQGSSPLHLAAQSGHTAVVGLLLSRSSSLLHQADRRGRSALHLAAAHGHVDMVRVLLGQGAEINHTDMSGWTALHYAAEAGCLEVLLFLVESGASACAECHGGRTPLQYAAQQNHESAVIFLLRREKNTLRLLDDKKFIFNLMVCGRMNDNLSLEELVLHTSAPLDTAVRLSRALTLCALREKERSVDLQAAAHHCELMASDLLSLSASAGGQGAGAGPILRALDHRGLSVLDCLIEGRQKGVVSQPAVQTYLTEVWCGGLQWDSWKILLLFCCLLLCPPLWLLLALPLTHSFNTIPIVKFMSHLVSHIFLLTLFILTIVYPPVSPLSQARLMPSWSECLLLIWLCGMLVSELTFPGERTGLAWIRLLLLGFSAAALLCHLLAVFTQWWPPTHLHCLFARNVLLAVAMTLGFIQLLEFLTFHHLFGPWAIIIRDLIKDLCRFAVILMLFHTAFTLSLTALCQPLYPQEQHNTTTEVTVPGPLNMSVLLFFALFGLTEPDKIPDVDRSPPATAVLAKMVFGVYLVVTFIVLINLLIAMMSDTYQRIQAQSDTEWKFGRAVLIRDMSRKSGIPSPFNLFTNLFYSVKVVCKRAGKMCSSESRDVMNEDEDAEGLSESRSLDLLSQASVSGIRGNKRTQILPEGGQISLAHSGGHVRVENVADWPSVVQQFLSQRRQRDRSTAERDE
# Chain of Glyceraldehyde-3-phosphate dehydrogenase (P04406 whole entry): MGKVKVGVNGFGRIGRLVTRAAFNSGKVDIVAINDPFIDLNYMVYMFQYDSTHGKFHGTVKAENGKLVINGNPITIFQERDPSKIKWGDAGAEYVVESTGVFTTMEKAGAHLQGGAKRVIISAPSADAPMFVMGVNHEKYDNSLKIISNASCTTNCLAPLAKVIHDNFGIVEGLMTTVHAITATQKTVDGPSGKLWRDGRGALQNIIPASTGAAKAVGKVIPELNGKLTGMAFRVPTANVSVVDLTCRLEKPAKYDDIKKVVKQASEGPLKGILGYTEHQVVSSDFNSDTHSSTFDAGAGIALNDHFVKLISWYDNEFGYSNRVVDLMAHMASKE
smiles,measurement,setting,value
COC(=O)c1ccc2[nH]ccc2c1,IC50,[1],42.7 µM (active)
Cc1cc(C)c(S(=O)(=O)Nc2ccccc2-c2ccccc2)c(C)c1,EC50,[2],5.34 µM (active)
same,EC50,[3],> 29.9 µM (not active)
Cc1ccc2[nH]c(-c3cccc(F)c3)cc(=O)c2c1,IC50,[4],> 80 µM (inactive)
Oc1ccccc1-c1nc2c3ccccc3c3ccccc3c2[nH]1,IC50,[1],11 µM (active)
same,CC50,[5],15.3 µM (active)
same,EC50,[6],4.11 µM (active)
same,EC50,[7],2.55 µM (active)
same,EC50,[8],12 µM (active)
COc1ccc(C2=NOC(C(=O)NCc3ccc(F)cc3)C2)cc1OC (centres undefined),EC50,[9],> 120 µM (not active)
same,EC50,[10],26 µM (active)
same,EC50,[11],11.2 µM (active)
same,EC50,[12],18.3 µM (active)
same,IC50,[4],> 80 µM (inactive)
same,EC50,[13],1.54 µM (inconclusive)
same,EC50,[14],5.72 µM (inconclusive)
O=C1C2CC=CCC2C(=O)N1c1nc[nH]n1 (centres undefined),IC50,[15],> 100 µM (inactive)
same,IC50,[16],> 100 µM (not active)
O=C(CSc1nc2ccccc2c(=O)n1CCCO)N1CCc2ccccc21,EC50,[17],0.596 µM (active)
Clc1ccc(-c2csc(-c3cccnc3)n2)s1,AC50,[18],276 µM (active)
Cc1ccc(S(=O)(=O)NC2CCCCC2)c2nsnc12,EC50,[2],8.34 µM (active)
same,EC50,[3],> 29.9 µM (not active)
c1ccc(OCc2nnc3n2N=C(c2ccccc2)CS3)cc1,IC50,[19],> 80 µM (inactive)
Cc1ccccc1Cn1c(=N)n(CC(O)c2ccco2)c2ccccc21 (centres undefined),EC50,[17],0.668 µM (active)
